How the values were obtained:
OX1 = target: T1, OX1 (Homo sapiens, UniProt O43613); assay: Orexin receptor cell-based functional assay, [Ca2+]i by FLIPR, CHO-OX1 cells; conditions: CHO-OX1 cells, [Ca2+]i by FLIPR, antagonist dose-range 0.1 nM-10 μM, EC90 of OXA; read-out: OX1
T1 construct: expressed in transfected cells; host or cells: CHO (CHO-OX1, kept under selection antibiotic)
T1 sequence (O43613 1-425): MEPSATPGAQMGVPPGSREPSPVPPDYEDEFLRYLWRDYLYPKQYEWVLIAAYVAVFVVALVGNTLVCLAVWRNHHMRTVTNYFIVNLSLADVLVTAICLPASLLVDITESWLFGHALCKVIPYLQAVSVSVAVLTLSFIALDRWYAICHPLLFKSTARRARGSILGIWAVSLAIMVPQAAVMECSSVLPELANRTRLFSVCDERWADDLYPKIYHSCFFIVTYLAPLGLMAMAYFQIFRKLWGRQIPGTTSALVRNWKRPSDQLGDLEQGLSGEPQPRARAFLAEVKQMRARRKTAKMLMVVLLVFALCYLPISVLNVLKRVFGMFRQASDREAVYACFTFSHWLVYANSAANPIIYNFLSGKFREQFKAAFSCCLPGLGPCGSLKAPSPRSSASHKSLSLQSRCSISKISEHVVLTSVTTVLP
Summary of the method: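 CHO cells expressing human OX1 or OX2 loaded with calcium dye plus 2.5 mM probenecid at 37° C (calcium4, 30 min, or calcium6, 2 h), then exposed to compounds (0.1 nM-10 μM) for 30 min. Intracellular Ca2+ measured on FLIPR; antagonist format.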

CYP3A4 = target: T2, CYP3A4 (Homo sapiens, UniProt P08684); assay: Cytochrome P450 inhibition assay (midazolam hydroxylation); format: in vitro ADME; conditions: human, human liver microsomes, probe midazolam (hydroxylation to 1′-hydroxymidazolam), 10 μM test compound, midazolam at approximately its Km
T2 construct: pre-incubated with human liver microsomes and NADPH; from tissue; host or cells: human liver microsomes
Summary of the method: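 Human liver microsomes; CYP3A4 activity as midazolam 1′-hydroxylation with substrate near Km, with or without 10 μM test compound, read as percent inhibition. For time-dependent inhibition, parallel samples were preincubated 30 min with NADPH before substrate, and percent inhibition compared with non-preincubated samples.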

T2 sequence (P08684 whole entry): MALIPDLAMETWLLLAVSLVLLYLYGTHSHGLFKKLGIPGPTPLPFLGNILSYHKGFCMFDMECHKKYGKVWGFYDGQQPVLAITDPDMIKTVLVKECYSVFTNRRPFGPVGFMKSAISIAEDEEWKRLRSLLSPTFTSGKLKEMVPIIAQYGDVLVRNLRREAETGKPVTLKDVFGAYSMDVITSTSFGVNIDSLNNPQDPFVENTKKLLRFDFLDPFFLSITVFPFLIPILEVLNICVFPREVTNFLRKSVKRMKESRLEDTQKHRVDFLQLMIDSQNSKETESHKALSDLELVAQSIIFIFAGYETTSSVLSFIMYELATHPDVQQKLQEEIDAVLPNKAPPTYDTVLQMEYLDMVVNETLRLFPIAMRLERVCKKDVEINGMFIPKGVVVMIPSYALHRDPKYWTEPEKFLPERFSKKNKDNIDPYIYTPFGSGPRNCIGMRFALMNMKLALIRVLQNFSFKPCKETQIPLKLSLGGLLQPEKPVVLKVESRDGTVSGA

IC50 (OX1) [nM]	inhibition at 10 µM (CYP3A4) [%]	SMILES
13	68	C[C@@H]1CCCN(C(=O)c2cc(Cl)ccc2-n2nccn2)[C@@H]1CNc1ccc(Cl)cn1 [Example A161]
41	41	C[C@@H]1CCCN(C(=O)c2cccc(F)c2-n2nccn2)[C@@H]1CNc1ncc(Cl)cn1 [Example A255, ((2S,3R)-2-(((5-Chloropyrimidin-2-yl)amino)methyl)-3-methylpiperidin-1-yl)(3-fluoro-2-(2H-1,2,3-triazol-2-yl)phenyl)methanone]
270	48	COc1cccnc1NC[C@@H]1[C@H](C)CCCN1C(=O)c1cc(C)ccc1-n1nccn1 [Example A98, ((2S,3R)-2-(((3-Methoxypyridin-2-yl)amino)methyl)-3-methylpiperidin-1-yl)(5-methyl-2-(2H-1,2,3-triazol-2-yl)phenyl)methanone]
370	36	Cc1ccc(-n2nccn2)c(C(=O)N2CCC[C@@H](C)[C@H]2CNc2ncc(F)cn2)c1 [Example A171, ((2S,3R)-2-(((5-Fluoropyrimidin-2-yl)amino)methyl)-3-methylpiperidin-1-yl)(5-methyl-2-(2H-1,2,3-triazol-2-yl)phenyl)methanone]
2	76	C[C@@H]1CCCN(C(=O)c2ccccc2-n2nccn2)[C@@H]1CNc1ccc(C(F)(F)F)cn1 [Example A314, (2-(2H-1,2,3-Triazol-2-yl)phenyl)((2S,3R)-3-methyl-2-(((5-(trifluoromethyl)pyridin-2-yl)amino)methyl)piperidin-1-yl)methanone]
37	63	C[C@@H]1CCCN(C(=O)c2cccc(F)c2-n2nccn2)[C@@H]1CNc1ccc(Cl)cn1 [Example A254, ((2S,3R)-2-(((5-Chloropyridin-2-yl)amino)methyl)-3-methylpiperidin-1-yl)(3-fluoro-2-(2H-1,2,3-triazol-2-yl)phenyl)methanone]
2600	84	C[C@@H]1CCCN(C(=O)c2ccccc2-n2nccn2)[C@@H]1CNc1nc2cc(Cl)ccc2o1 [Example A219, (2-(2H-1,2,3-Triazol-2-yl)phenyl)((2S,3R)-2-(((5-chlorobenzo[d]oxazol-2-yl)amino)methyl)-3-methylpiperidin-1-yl)methanone]
21	70	C[C@@H]1CCCN(C(=O)c2cc(Cl)ccc2-c2ncccn2)[C@@H]1CNc1ccc(Cl)cn1 [Example A203, (5-Chloro-2-(pyrimidin-2-yl)phenyl)((2S,3R)-2-(((5-chloropyridin-2-yl)amino)methyl)-3-methylpiperidin-1-yl)methanone]
340	52	Cc1ccc(-n2nccn2)c(C(=O)N2CCC[C@@H](C)[C@H]2CNc2ncccc2C)c1 [Example A99, ((2S,3R)-3-Methyl-2-(((3-methylpyridin-2-yl)amino)methyl)piperidin-1-yl)(5-methyl-2-(2H-1,2,3-triazol-2-yl)phenyl)methanone]
5	84	Cc1ccc(-n2ncc(C)n2)c(C(=O)N2CCC[C@@H](C)[C@H]2CNc2ccc(Cl)cn2)c1 [Example A121, ((2S,3R)-2-(((5-Chloropyridin-2-yl)amino)methyl)-3-methylpiperidin-1-yl)(5-methyl-2-(4-methyl-2H-1,2,3-triazol-2-yl)phenyl)methanone]
4	69	C[C@@H]1CCCN(C(=O)c2cccc(F)c2-n2nccn2)[C@@H]1CNc1ccc(C(F)(F)F)cn1 [Example A257, (3-Fluoro-2-(2H-1,2,3-triazol-2-yl)phenyl)((2S,3R)-3-methyl-2-(((5-(trifluoromethyl)pyridin-2-yl)amino)methyl)piperidin-1-yl)methanone]
15	76	C[C@@H]1CCCN(C(=O)c2cc(Cl)ccc2-n2nccn2)[C@@H]1CNc1ccc(C(F)(F)F)nn1 [Example A162, (5-Chloro-2-(2H-1,2,3-triazol-2-yl)phenyl)((2S,3R)-3-methyl-2-(((6-(trifluoromethyl)pyridazin-3-yl)amino)methyl)piperidin-1-yl)methanone]
120	37	Cc1ccc(-n2nccn2)c(C(=O)N2CCC[C@@H](C)[C@H]2CNc2ccc(C#N)cn2)n1 [Example A189, 6-((((2S,3R)-3-Methyl-1-(6-methyl-3-(2H-1,2,3-triazol-2-yl)picolinoyl)piperidin-2-yl)methyl)amino)nicotinonitrile]

More lines, now with the values behind:

SMILES	IC50 (OX1) [nM]	inhibition at 10 µM (CYP3A4) [%]
Cc1ccc(-n2nccn2)c(C(=O)N2CCC[C@@H](C)[C@H]2CNc2ncc(C#N)cc2F)c1 [Example A148, 5-Fluoro-6-((((2S,3R)-3-methyl-1-(5-methyl-2-(2H-1,2,3-triazol-2-yl)benzoyl)piperidin-2-yl)methyl)amino)nicotinonitrile]	83	81
Cc1ccc(-c2cnn(C)c2)c(C(=O)N2CCC[C@@H](C)[C@H]2CNc2nc3ccc(Cl)cc3o2)c1 [Example A10, ((2S,3R)-2-(((6-Chlorobenzo[d]oxazol-2-yl)amino)methyl)-3-methylpiperidin-1-yl)(5-methyl-2-(1-methyl-1H-pyrazol-4-yl)phenyl)methanone]	81	98
Cc1ccc(-n2cnc(C)n2)c(C(=O)N2CCC[C@@H](C)[C@H]2CNc2ccc(C(F)(F)F)cn2)c1 [Example A17, ((2S,3R)-3-Methyl-2-(((5-(trifluoromethyl)pyridin-2-yl)amino)methyl)piperidin-1-yl)(5-methyl-2-(3-methyl-1H-1,2,4-triazol-1-yl)phenyl)methanone]	20	95
Cc1ccc(C(=O)N2CCC[C@@H](C)[C@H]2CNc2ccc(C(F)(F)F)cn2)c(-c2ncccn2)c1F [Example A358, (3-fluoro-4-methyl-2-(pyrimidin-2-yl)phenyl)((2S,3R)-3-methyl-2-(((5-(trifluoromethyl)pyridin-2-yl)amino)methyl)piperidin-1-yl)methanone]	5	83
Cc1ccc(-c2cnccc2C)c(C(=O)N2CCC[C@@H](C)[C@H]2CNc2ccc(C(F)(F)F)cn2)c1 [Example A8, ((2S,3R)-3-Methyl-2-(((5-(trifluoromethyl)pyridin-2-yl)amino)methyl)piperidin-1-yl)(5-methyl-2-(4-methylpyridin-3-yl)phenyl)methanone]	58	99
Cc1ccc(-n2ncc(C)n2)c(C(=O)N2CCC[C@@H](C)[C@H]2CNc2ccc(F)cn2)c1 [Example A142, ((2S,3R)-2-(((5-Fluoropyridin-2-yl)amino)methyl)-3-methylpiperidin-1-yl)(5-methyl-2-(4-methyl-2H-1,2,3-triazol-2-yl)phenyl)methanone]	51	74
Cc1ccc(-c2ccc(F)cn2)c(C(=O)N2CCC[C@@H](C)[C@H]2CNc2ccc(Cl)cn2)c1 [Example A159, ((2S,3R)-2-(((5-Chloropyridin-2-yl)amino)methyl)-3-methylpiperidin-1-yl)(2-(5-fluoropyridin-2-yl)-5-methylphenyl)methanone]	170	88
Cc1ccc(-n2nccn2)c(C(=O)N2CCC[C@@H](C)[C@H]2CNc2ccc(C(F)(F)F)cn2)c1F [Example A318, (2-Fluoro-3-methyl-6-(2H-1,2,3-triazol-2-yl)phenyl)((2S,3R)-3-methyl-2-(((5-(trifluoromethyl)pyridin-2-yl)amino)methyl)piperidin-1-yl)methanone]	7	79
Cc1ccc(-n2cccn2)c(C(=O)N2CCC[C@@H](C)[C@H]2CNc2ccc(C#N)nn2)c1 [Example A156, 6-((((2S,3R)-3-Methyl-1-(5-methyl-2-(1H-pyrazol-1-yl)benzoyl)piperidin-2-yl)methyl)amino)pyridazine-3-carbonitrile]	> 1000	53
Cc1ccc(-c2nccn2C)c(C(=O)N2CCC[C@@H](C)[C@H]2CNc2ccc(C(F)(F)F)cn2)c1 [Example A20, ((2S,3R)-3-Methyl-2-(((5-(trifluoromethyl)pyridin-2-yl)amino)methyl)piperidin-1-yl)(5-methyl-2-(1-methyl-1H-imidazol-2-yl)phenyl)methanone]	37	83
C[C@@H]1CCCN(C(=O)c2ccccc2-n2nccn2)[C@@H]1CNc1ncc(C(F)(F)F)cn1 [Example A313, (2-(2H-1,2,3-Triazol-2-yl)phenyl)((2S,3R)-3-methyl-2-(((5-(trifluoromethyl)pyrimidin-2-yl)amino)methyl)piperidin-1-yl)methanone]	5	60
